Experiments:
GSK3alpha = GSK3alpha (Homo sapiens, UniProt P49840); test: GSK3alpha assay (same as the GSK3beta assay, GSK3alpha 0.25 ng/μl); type: biochemical; details: −log IC50 (M); given as ranges (>8; 7-8; <7); read-out: pIC50 (GSK3alpha) (converted)
Procedure, shortened: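 GSK3α at 0.25 ng/μl phosphorylated 5 μM biotinylated phospho-CREB peptide with 1 μM ATP and 33P-ATP for 1 h at room temperature, in 25 mM Tris pH 7.4 with 10 mM MgCl2 and 1 mM DTT. Phosphorylated peptide was captured on streptavidin SPA beads and counted. IC50 was taken from dose-response curves.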

GSK3β = GSK3β (Homo sapiens, UniProt P49841); test: GSK3beta assay (SPA, biotinylated phosphorylated CREB peptide, ATP-P33); type: biochemical; details: −log IC50 (M); given as ranges (>8; 7-8; <7); read-out: pIC50 (GSK3beta) (converted)
Sequence of GSK3β (P49841 whole entry, species assumed): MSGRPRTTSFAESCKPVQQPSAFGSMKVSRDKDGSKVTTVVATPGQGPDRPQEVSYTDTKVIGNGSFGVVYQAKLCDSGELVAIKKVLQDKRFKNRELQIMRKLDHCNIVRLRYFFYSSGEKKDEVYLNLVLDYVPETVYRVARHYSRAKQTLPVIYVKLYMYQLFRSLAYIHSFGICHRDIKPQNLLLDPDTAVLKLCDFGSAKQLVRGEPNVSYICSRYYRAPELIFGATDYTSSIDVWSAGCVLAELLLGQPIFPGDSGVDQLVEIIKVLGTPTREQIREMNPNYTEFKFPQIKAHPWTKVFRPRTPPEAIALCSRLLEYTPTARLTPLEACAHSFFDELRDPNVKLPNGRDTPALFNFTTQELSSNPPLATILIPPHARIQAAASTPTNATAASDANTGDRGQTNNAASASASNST
Procedure, shortened: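 Radiometric SPA at room temperature, pH 7.4 Tris/MgCl2/DTT/BSA/glycerol, with 5.7 ng/μl GSK3β, 5 μM biotinylated phospho-CREB peptide, 1 μM ATP plus 33P-ATP for 1 h. Stopped with streptavidin SPA beads, counted after overnight settling; % inhibition versus no-compound control, IC50 from dose-response curve.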

Sequence of GSK3alpha (P49840 whole entry, species assumed): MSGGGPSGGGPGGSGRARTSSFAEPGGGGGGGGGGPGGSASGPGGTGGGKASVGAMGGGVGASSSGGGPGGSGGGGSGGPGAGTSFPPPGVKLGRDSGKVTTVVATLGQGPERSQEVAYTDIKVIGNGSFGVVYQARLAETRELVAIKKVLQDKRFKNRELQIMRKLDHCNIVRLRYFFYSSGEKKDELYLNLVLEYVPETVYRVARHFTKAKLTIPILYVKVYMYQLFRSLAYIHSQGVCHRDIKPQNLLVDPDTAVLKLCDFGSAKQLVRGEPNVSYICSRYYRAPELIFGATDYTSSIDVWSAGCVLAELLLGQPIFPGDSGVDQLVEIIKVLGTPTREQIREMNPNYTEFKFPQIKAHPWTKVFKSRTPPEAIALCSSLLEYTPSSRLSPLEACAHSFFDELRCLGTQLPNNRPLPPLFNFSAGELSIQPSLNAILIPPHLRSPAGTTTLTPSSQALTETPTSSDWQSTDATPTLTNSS

Row | Structure (SMILES) | melting point [°C] | IC50 (GSK3alpha) [M] | IC50 (GSK3β) [M]
1 | CN(C)CCCOc1ccc(Nc2ncc3nnn(-c4cccc(F)c4)c3n2)cc1 [Compound 297] | 137 | 1e-08 to 1e-07 | 1e-08 to 1e-07
2 | COCc1cccc(-n2nnc3cnc(Nc4cccc([S+](C)[O-])c4)nc32)c1 (stereo not drawn) [Compound 148] | 142 to 146 | < 1e-08 | < 1e-08
3 | NS(=O)(=O)c1cccc(Nc2ncc3nnn(-c4cccc(-c5cnco5)c4)c3n2)c1 [Compound 57] | > 250 | < 1e-08 | < 1e-08
4 | C=CCN(c1cccc(Nc2ncc3nnn(-c4cccc(CO)c4)c3n2)c1)S(C)(=O)=O [Compound 69] | 158 to 162 | 1e-08 | < 1e-08

The remaining lines, values ahead:

Row | melting point [°C] | IC50 (GSK3alpha) [M] | IC50 (GSK3β) [M] | Structure (SMILES)
5 | 150 to 154 | < 1e-08 | < 1e-08 | CC(O)c1cccc(Nc2ncc3nnn(-c4cccc(F)c4)c3n2)c1 (stereo not drawn) [Compound 27]
6 | 220 to 224 | < 1e-08 | < 1e-08 | CC(=O)c1cccc(Nc2ncc3nnn(-c4cccc(F)c4)c3n2)c1 [Compound 2]
7 | > 250 | < 1e-08 | < 1e-08 | O=C(O)/C=C/c1cccc(Nc2ncc3nnn(-c4cccc(F)c4)c3n2)c1 [Compound 10]
8 | 142 to 146 | < 1e-08 | < 1e-08 | CC(C)Oc1cccc(Nc2ncc3nnn(-c4cccc(F)c4)c3n2)c1 [Compound 28]
